In assay [1] the test system is downy mildew pathogens of grape. As to the kind of experiment: Toxicity test on downy mildew pathogens of grape (disease index and control effect on whole grape plants, EC50 and co-toxicity coefficient).
Assay [2] concerns late blight pathogens of potato. The experiment in a line: whole plant or invertebrate. The format is in vivo.
Setting [3] is: Table 9, series with picoxystrobin.
The mark [4] stands for this setting: Table 6, series with fluopicolide.

Drawing on US10561143B2, “Fungicidal composition having synergistic effect” (JIANGSU HUIFENG AGROCHEMICAL CO., LTD., priority 2013, dated 2020), this text covers EC50 for twelve compounds.

SMILES strings stand for the structures. ≈ marks a conversion by molar mass, not a printed value. Read-outs that look alike come from different tables or passages of the source.

Broadly, the EC50 is the midpoint of the concentration-response curve. Low readings indicate a more potent agent, high ones a less potent agent. On to `O=[N+]([O-])c1cc(C(F)(F)F)c(Cl)c([N+](=O)[O-])c1Nc1ncc(C(F)(F)F)cc1Cl` [Fluazinam], for which it took 11.2 µg/mL (≈ 24.2 µM) to reach a half-maximal effect in assay [1] (EC50).
For the compound `CC(C)OC(=O)N[C@H](C(=O)N[C@H](C)c1nc2ccc(F)cc2s1)C(C)C` [Benthiavalicarb-isopropyl], the values for the EC50 in assay [2] (Phytophthora infestans) and in assay [1] were 6.73 µg/mL (≈ 17.6 µM) and 10.8 µg/mL (≈ 28.2 µM), respectively.
The corresponding values for `CCC(C)(NC(=O)c1cc(Cl)c(C)c(Cl)c1)C(=O)CCl` (stereo not drawn) [Zoxamide] are 6.21 µg/mL (≈ 18.4 µM) and 11.5 µg/mL (≈ 34.1 µM).
For `CO/C=C(/C(=O)OC)c1ccccc1COc1cccc(C(F)(F)F)n1` [Picoxystrobin], the concentration for a half-maximal effect (EC50) in assay [1] (setting [3]) was found to be 15.31 µg/mL (≈ 41.7 µM).
Turning to `Cl.O=c1[nH]sc2ccccc12` [Benziothiazolinone hydrochloride], in assay [1] (Table 10, series with fluazinam), the EC50 was found to be 12.87 µg/mL.
Regarding `C[C@@]1(c2ccc(Oc3ccccc3)cc2)OC(=O)N(Nc2ccccc2)C1=O` (racemic) [Famoxadone], in assay [1], the concentration for a half-maximal effect (EC50) is 13.8 µg/mL (≈ 36.9 µM).
Regarding `O=c1[nH]sc2ccccc12` [Benziothiazolinone], the concentration for a half-maximal effect (EC50) is 6.89 µg/mL (≈ 45.6 µM) in assay [2] (Table 11, series with pyraclostrobin); 5.58 µg/mL (≈ 36.9 µM) in assay [2] (Table 12, series with boscalid); 6.22 µg/mL (≈ 41.1 µM) in assay [2] (Table 13, series with benthiavalicarb-isopropyl); 5.89 µg/mL (≈ 39 µM) in assay [2] (Table 14, series with zoxamide); 6.12 µg/mL (≈ 40.5 µM) in assay [2] (Table 15, series with fenamidone); 8.92 µg/mL (≈ 59 µM) in assay [1] (Table 1, series with benthiavalicarb-isopropyl). Moreover, the EC50 in assay [1] (Table 2, series with zoxamide) amounted to 9.41 µg/mL (≈ 62.2 µM); in assay [1] (Table 3, series with prothioconazole), 10.05 µg/mL (≈ 66.5 µM); in assay [1] (Table 4, series with boscalid), 9.46 µg/mL (≈ 62.6 µM); in assay [1] (Table 5, series with fenamidone), 10.59 µg/mL (≈ 70 µM); in assay [1] (setting [4]) it was 12.17 µg/mL (≈ 80.5 µM); in assay [1] (Table 7, series with famoxadone), 11.36 µg/mL (≈ 75.1 µM). In addition, the concentration giving a half-maximal response (EC50) was found to be 11.85 µg/mL (≈ 78.4 µM) in assay [1] (Table 8, series with pyraclostrobin) and 14.18 µg/mL (≈ 93.8 µM) in assay [1] (setting [3]).
For `O=C(Nc1ccccc1-c1ccc(Cl)cc1)c1cccnc1Cl` [Boscalid], the values for the 50% effective concentration (EC50) in assay [2] (Phytophthora infestans) and in assay [1] were 6.31 µg/mL (≈ 18.4 µM) and 11.6 µg/mL (≈ 33.8 µM), respectively.
The compound `O=C(NCc1ncc(C(F)(F)F)cc1Cl)c1c(Cl)cccc1Cl` [Fluopicolide] yielded an EC50 in assay [1] (setting [4]) of 15.32 µg/mL (≈ 39.9 µM).
As to `COC(=O)N(OC)c1ccccc1COc1ccn(-c2ccc(Cl)cc2)n1` [pyraclostrobin], the EC50 came to 5.28 µg/mL (≈ 13.6 µM) in assay [2] (Phytophthora infestans) and 10.7 µg/mL (≈ 27.6 µM) in assay [1].
In assay [1], `OC(Cc1ccccc1Cl)(Cn1nc[nH]c1=S)C1(Cl)CC1` (stereo not drawn) [Prothioconazole] had a concentration for a half-maximal effect (EC50) of 13.3 µg/mL (≈ 38.5 µM).
As for `CSC1=N[C@@](C)(c2ccccc2)C(=O)N1Nc1ccccc1` [Fenamidone], the EC50 in assay [2] (Phytophthora infestans) worked out at 6.58 µg/mL (≈ 21.1 µM); in assay [1], 12.8 µg/mL (≈ 41 µM).
